# Measurements published in patent US20240116988A1, “ANTI-ROR1 MACROCYCLIC PEPTIDES AND COMPOSITIONS” (BRISTOL-MYERS SQUIBB COMPANY, priority 2022, published 2024).
# Positions of bridges follow the written chain, without caps; N, C: chain ends. Non-standard residues stand in square brackets, D forms with d. Residues, ends and D or L forms follow the SMILES beside them. ξ: configuration not given here. NMeF = CN[C@@H](Cc1ccccc1)C(=O)O; Thr(3ξ) = CC(O)[C@H](N)C(=O)O; Phg = N[C@H](C(=O)O)c1ccccc1; ξC = NC(CS)C(=O)O; Sar = CNCC(=O)O
# Biological target: T1, human ROR1 (Homo sapiens, UniProt Q01973)
# T1 construct: host or cells: HEK 293T cells, Tet-on system induced with doxycycline
# T1 sequence (Q01973 30-937): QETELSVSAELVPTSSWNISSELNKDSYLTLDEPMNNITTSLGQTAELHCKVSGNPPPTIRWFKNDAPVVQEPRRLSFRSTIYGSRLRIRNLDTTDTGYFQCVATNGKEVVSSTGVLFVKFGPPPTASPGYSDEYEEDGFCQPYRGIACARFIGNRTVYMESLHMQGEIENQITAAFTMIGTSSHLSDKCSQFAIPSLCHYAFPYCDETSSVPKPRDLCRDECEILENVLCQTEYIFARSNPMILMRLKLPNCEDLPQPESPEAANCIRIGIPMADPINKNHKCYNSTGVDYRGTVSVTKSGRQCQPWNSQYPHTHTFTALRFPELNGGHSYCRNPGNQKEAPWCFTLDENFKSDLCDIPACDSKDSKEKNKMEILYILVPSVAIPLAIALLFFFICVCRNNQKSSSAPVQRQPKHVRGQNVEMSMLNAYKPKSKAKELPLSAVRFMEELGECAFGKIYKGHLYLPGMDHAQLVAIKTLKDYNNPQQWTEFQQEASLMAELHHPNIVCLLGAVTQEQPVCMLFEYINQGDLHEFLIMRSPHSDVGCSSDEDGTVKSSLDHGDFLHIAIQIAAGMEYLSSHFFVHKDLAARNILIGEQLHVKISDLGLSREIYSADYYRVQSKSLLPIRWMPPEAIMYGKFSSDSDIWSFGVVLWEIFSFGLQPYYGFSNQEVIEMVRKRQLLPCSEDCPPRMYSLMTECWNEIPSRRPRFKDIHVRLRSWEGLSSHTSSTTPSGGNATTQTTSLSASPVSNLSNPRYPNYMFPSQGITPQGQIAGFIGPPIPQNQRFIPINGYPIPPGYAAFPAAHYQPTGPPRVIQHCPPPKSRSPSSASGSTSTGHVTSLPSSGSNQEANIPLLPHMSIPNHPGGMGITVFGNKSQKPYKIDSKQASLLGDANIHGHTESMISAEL
# Experiment: ROR1 high content cell-based binding assay
# Settings: 293T cells expressing human ROR1 (Tet-on, doxycycline); inhibition of binding of 5-FAM-labeled probe (Example 1300) at 30 nM; 1 hour at 37° C.; read-out: ROR1 Binding 293T Human HC Cell Based Assay IC50
# Procedure, shortened: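 Doxycycline-induced 293T cells expressing human ROR1, seeded overnight, were treated with compound plus 5-FAM-labeled ROR1-binding probe peptide (30 nM final) for 1 h at 37 °C. After washing and formaldehyde/Hoechst fixation, cell-bound probe fluorescence was read by high-content imaging.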
row,SMILES,IC50 [nM]
1,CC(C)C[C@@H]1NC(=O)[C@H](Cc2ccc(O)cc2)NC(=O)[C@H](Cc2ccccc2)NC(=O)CSC[C@@H](C(=O)NCC(N)=O)NC(=O)[C@H](CC(C)C)NC(=O)[C@H](Cc2ccccc2)N(C)C(=O)[C@H](Cc2ccc(O)cc2)NC(=O)[C@H](Cc2c[nH]c3ccccc23)NC(=O)CNC(=O)[C@H](CCC(=O)O)NC(=O)[C@H](Cc2ccc(O)cc2)NC(=O)[C@H](C(C)C)NC1=O [Example 1028] ({CH2CO}-FYLVYEGWY[NMeF]LCG-NH2; thioether N-12),10

# Same assay, conditions: read-out: ROR1 Binding 293T Human HC Cell Based Assay IC50
row,SMILES,IC50 [nM]
1,CC(C)C[C@@H]1NC(=O)[C@H](Cc2ccc(O)cc2)NC(=O)[C@H](Cc2c[nH]c3ccccc23)NC(=O)CSC[C@@H](C(=O)NCC(N)=O)NC(=O)[C@H](CC(C)C)NC(=O)[C@H](Cc2ccccc2)N(C)C(=O)[C@H](Cc2ccc(O)cc2)NC(=O)[C@H](Cc2c[nH]c3ccccc23)NC(=O)CNC(=O)[C@H](CO)NC(=O)[C@H](Cc2ccc(O)cc2)NC(=O)[C@H](C(C)C)NC1=O [Example 1077] ({CH2CO}-WYLVYSGWY[NMeF]LCG-NH2; thioether N-12),2
2,CC(C)C[C@@H]1NC(=O)[C@H](Cc2ccc(O)cc2)NC(=O)[C@H](Cc2ccccc2)N(C)C(=O)CSC[C@@H](C(=O)NCC(N)=O)NC(=O)[C@H](CC(C)C)NC(=O)[C@H](Cc2ccccc2)N(C)C(=O)[C@H](Cc2ccc(O)cc2)NC(=O)[C@H](Cc2c[nH]c3ccccc23)NC(=O)CNC(=O)[C@H](CO)NC(=O)[C@H](Cc2ccc(O)cc2)NC(=O)[C@H](C(C)C)NC1=O [Example 1082] ({CH2CO}-[NMeF]YLVYSGWY[NMeF]LCG-NH2; thioether N-12),192
3,CC(C)C[C@@H]1NC(=O)[C@H](CC(N)=O)NC(=O)[C@H](Cc2ccccc2)N(C)C(=O)CNC(=O)[C@H](Cc2ccc(O)cc2)NC(=O)[C@H](Cc2ccc(O)cc2)NC(=O)CSC[C@@H](C(N)=O)NC(=O)[C@H](Cc2c[nH]c3ccccc23)NC(=O)[C@H](Cc2ccc(O)cc2)NC1=O [Example 1120] ({CH2CO}-YYG[NMeF]NLYWC-NH2; thioether N-9),790
4,CC(C)C[C@@H]1NC(=O)[C@H](Cc2ccc(O)cc2)NC(=O)[C@H](Cc2ccccc2)NC(=O)CSC[C@@H](C(=O)NCC(N)=O)NC(=O)[C@H](CC(C)C)NC(=O)[C@H](Cc2ccccc2)N(C)C(=O)[C@H](Cc2ccc(O)cc2)NC(=O)[C@H](Cc2c[nH]c3ccccc23)NC(=O)CNC(=O)[C@H](Cc2ccc(O)cc2)NC(=O)[C@H](Cc2ccc(O)cc2)NC(=O)[C@H](C(C)C)NC1=O [Example 1045] ({CH2CO}-FYLVYYGWY[NMeF]LCG-NH2; thioether N-12),9
5,CC(C)C[C@@H]1NC(=O)[C@H](CC(N)=O)NC(=O)[C@H](Cc2ccccc2)N(C)C(=O)CNC(=O)[C@H](Cc2ccc(O)cc2)NC(=O)[C@H](Cc2ccccc2)NC(=O)CSCC(C(N)=O)NC(=O)[C@H](Cc2c[nH]c3ccccc23)NC(=O)[C@H](Cc2ccccc2)NC1=O (some centres unmarked) [Example 1104] ({CH2CO}-FYG[NMeF]NLFW[ξC]-NH2; thioether N-9),31
6,CC(C)C[C@@H]1NC(=O)[C@H](Cc2ccc(O)cc2)NC(=O)[C@H](Cc2ccccc2)NC(=O)CSC[C@@H](C(=O)NCC(N)=O)NC(=O)[C@H](CC(C)C)NC(=O)[C@H](Cc2ccccc2)N(C)C(=O)[C@H](Cc2ccc(O)cc2)NC(=O)[C@H](Cc2c[nH]c3ccccc23)NC(=O)[C@H](CCCNC(=N)N)NC(=O)[C@H](CO)NC(=O)[C@H](Cc2ccc(O)cc2)NC(=O)[C@H](C(C)C)NC1=O [Example 1047] ({CH2CO}-FYLVYSRWY[NMeF]LCG-NH2; thioether N-12),243
7,CC(C)C[C@@H]1NC(=O)[C@H](Cc2ccc(O)cc2)NC(=O)[C@H](Cc2ccccc2)NC(=O)CSC[C@@H](C(=O)NCC(N)=O)NC(=O)[C@H](CC(C)C)NC(=O)[C@H](Cc2ccccc2)N(C)C(=O)[C@H](Cc2ccc(O)cc2)NC(=O)[C@H](Cc2c[nH]c3ccccc23)NC(=O)CNC(=O)[C@H](CO)NC(=O)[C@H](CCC(N)=O)NC(=O)[C@H](C(C)C)NC1=O [Example 1031] ({CH2CO}-FYLVQSGWY[NMeF]LCG-NH2; thioether N-12),214
8,CC(C)C[C@@H]1NC(=O)[C@H](C(C)O)NC(=O)[C@H](Cc2ccccc2)N(C)C(=O)CNC(=O)[C@H](Cc2ccc(O)cc2)NC(=O)[C@H](Cc2ccccc2)NC(=O)CSC[C@@H](C(N)=O)NC(=O)[C@H](Cc2c[nH]c3ccccc23)NC(=O)[C@H](Cc2ccc(O)cc2)NC1=O (some centres unmarked) [Example 1114] ({CH2CO}-FYG[NMeF][Thr(3ξ)]LYWC-NH2; thioether N-9),470
9,CC(C)C[C@@H]1NC(=O)[C@H](Cc2ccc(O)cc2)NC(=O)[C@H](Cc2ccccc2)NC(=O)CSC[C@@H](C(=O)NCC(N)=O)NC(=O)[C@H](CC(C)C)NC(=O)[C@H](Cc2ccccc2)N(C)C(=O)[C@H](Cc2ccc(O)cc2)NC(=O)[C@H](Cc2c[nH]c3ccccc23)NC(=O)[C@H](CCC(=O)O)NC(=O)[C@H](CO)NC(=O)[C@H](Cc2ccc(O)cc2)NC(=O)[C@H](C(C)C)NC1=O [Example 1053] ({CH2CO}-FYLVYSEWY[NMeF]LCG-NH2; thioether N-12),760
10,CC(C)C[C@@H]1NC(=O)[C@H](Cc2ccc(O)cc2)NC(=O)[C@H](C)NC(=O)CSC[C@@H](C(=O)NCC(N)=O)NC(=O)[C@H](CC(C)C)NC(=O)[C@H](Cc2ccccc2)N(C)C(=O)[C@H](Cc2ccc(O)cc2)NC(=O)[C@H](Cc2c[nH]c3ccccc23)NC(=O)CNC(=O)[C@H](CO)NC(=O)[C@H](Cc2ccc(O)cc2)NC(=O)[C@H](C(C)C)NC1=O [Example 1037] ({CH2CO}-AYLVYSGWY[NMeF]LCG-NH2; thioether N-12),251
11,CC(C)C[C@@H]1NC(=O)[C@H](Cc2ccc(O)cc2)NC(=O)[C@H](Cc2ccccc2)NC(=O)CSC[C@@H](C(=O)NCC(N)=O)NC(=O)[C@H](CC(C)C)NC(=O)[C@H](Cc2ccccc2)N(C)C(=O)[C@H](C)NC(=O)[C@H](Cc2c[nH]c3ccccc23)NC(=O)CNC(=O)[C@H](CO)NC(=O)[C@H](Cc2ccc(O)cc2)NC(=O)[C@H](C(C)C)NC1=O [Example 1039] ({CH2CO}-FYLVYSGWA[NMeF]LCG-NH2; thioether N-12),681
12,CC(C)[C@@H]1NC(=O)CN(C)C(=O)[C@H](CCCNC(=N)N)NC(=O)[C@H](Cc2ccccc2)NC(=O)CSC[C@@H](C(N)=O)NC(=O)[C@H](C(C)C)NC(=O)[C@H](Cc2c[nH]c3ccccc23)NC(=O)[C@H](Cc2ccc(O)cc2)NC(=O)[C@H](Cc2c[nH]c3ccccc23)NC(=O)CNC(=O)[C@H](Cc2c[nH]c3ccccc23)NC(=O)[C@H](CCCNC(=N)N)NC1=O [Example 1097] ({CH2CO}-FR[Sar]VRWGWYWVC-NH2; thioether N-12),63
13,CC(C)C[C@@H]1NC(=O)[C@H](Cc2ccc(O)cc2)NC(=O)[C@H](Cc2ccccc2)NC(=O)CSC[C@@H](C(=O)NCC(N)=O)NC(=O)[C@H](CC(C)C)NC(=O)[C@H](Cc2ccccc2)N(C)C(=O)[C@H](Cc2ccc(O)cc2)NC(=O)[C@H](Cc2c[nH]c3ccccc23)NC(=O)CNC(=O)[C@H](CO)NC(=O)[C@H](Cc2ccc(O)cc2)NC(=O)[C@H](CO)NC1=O [Example 1069] ({CH2CO}-FYLSYSGWY[NMeF]LCG-NH2; thioether N-12),82
14,CC(C)C[C@@H]1NC(=O)[C@H](Cc2ccc(O)cc2)NC(=O)[C@H](Cc2ccccc2)NC(=O)CSC[C@@H](C(=O)NCC(N)=O)NC(=O)[C@H](CC(C)C)NC(=O)[C@H](Cc2ccccc2)N(C)C(=O)[C@H](Cc2ccc(O)cc2)NC(=O)[C@H](Cc2c[nH]c3ccccc23)NC(=O)CNC(=O)[C@H](CCCCN)NC(=O)[C@H](Cc2ccc(O)cc2)NC(=O)[C@H](C(C)C)NC1=O [Example 1019] ({CH2CO}-FYLVYKGWY[NMeF]LCG-NH2; thioether N-12),27
15,CC(C)C[C@@H]1NC(=O)[C@H](Cc2ccc(O)cc2)NC(=O)[C@H](Cc2ccccc2)NC(=O)CSC[C@@H](C(=O)NCC(N)=O)NC(=O)[C@H](CC(C)C)NC(=O)[C@H](Cc2ccccc2)N(C)C(=O)[C@H](Cc2ccc(O)cc2)NC(=O)[C@H](Cc2c[nH]c3ccccc23)NC(=O)CNC(=O)[C@H](CCC(N)=O)NC(=O)[C@H](Cc2ccc(O)cc2)NC(=O)[C@H](C(C)C)NC1=O [Example 1016] ({CH2CO}-FYLVYQGWY[NMeF]LCG-NH2; thioether N-12),7
16,CC(C)C[C@@H]1NC(=O)[C@@H](CCC(N)=O)NC(=O)[C@H](Cc2ccccc2)N(C)C(=O)CNC(=O)[C@H](Cc2ccc(O)cc2)NC(=O)[C@H](Cc2ccccc2)NC(=O)CSC[C@@H](C(N)=O)NC(=O)[C@H](Cc2c[nH]c3ccccc23)NC(=O)[C@H](Cc2ccc(O)cc2)NC1=O [Example 1122] ({CH2CO}-FYG[NMeF][dQ]LYWC-NH2; thioether N-9),567
17,CC(C)C[C@@H]1NC(=O)[C@H](Cc2ccc(O)cc2)NC(=O)[C@H](c2ccccc2)NC(=O)CSC[C@@H](C(=O)NCC(N)=O)NC(=O)[C@H](CC(C)C)NC(=O)[C@H](Cc2ccccc2)N(C)C(=O)[C@H](Cc2ccc(O)cc2)NC(=O)[C@H](Cc2c[nH]c3ccccc23)NC(=O)CNC(=O)[C@H](CO)NC(=O)[C@H](Cc2ccc(O)cc2)NC(=O)[C@H](C(C)C)NC1=O [Example 1093] ({CH2CO}-[Phg]YLVYSGWY[NMeF]LCG-NH2; thioether N-12),324
18,CC(C)C[C@@H]1NC(=O)[C@H](Cc2ccc(O)cc2)NC(=O)[C@H](Cc2ccccc2)NC(=O)CSC[C@@H](C(=O)NCC(N)=O)NC(=O)[C@H](CC(C)C)NC(=O)[C@H](Cc2ccccc2)N(C)C(=O)[C@H](Cc2ccc(O)cc2)NC(=O)[C@H](Cc2c[nH]c3ccccc23)NC(=O)CNC(=O)[C@H](CCCNC(=N)N)NC(=O)CNC(=O)[C@H](C(C)C)NC1=O [Example 1033] ({CH2CO}-FYLVGRGWY[NMeF]LCG-NH2; thioether N-12),768
19,CC(C)C[C@@H]1NC(=O)[C@H](Cc2ccc(O)cc2)NC(=O)[C@H](Cc2ccccc2)NC(=O)CSC[C@@H](C(=O)NCC(N)=O)NC(=O)[C@H](CC(C)C)NC(=O)[C@H](Cc2ccccc2)N(C)C(=O)[C@H](Cc2ccc(O)cc2)NC(=O)[C@H](Cc2c[nH]c3ccccc23)NC(=O)[C@H](CCCCN)NC(=O)[C@H](CO)NC(=O)[C@H](Cc2ccc(O)cc2)NC(=O)[C@H](C(C)C)NC1=O [Example 1056] ({CH2CO}-FYLVYSKWY[NMeF]LCG-NH2; thioether N-12),740
